Data: US20150315188A1, “COMPOUNDS AND METHODS FOR TREATMENT OF HYPERTENSION” (MEDIVATION TECHNOLOGIES, INC., priority 2012, published 2015)

Columns and labels:
Design in all cases: purchased Milipore (Millipore)
[1] = target: T1, Human adrenergic α2A receptor (Homo sapiens, UniProt P08913); experiment: Radioligand binding, adrenergic α2A (Protocol Group B); details: Protocol Group B; for Percentage inhibition of ligand binding, Adrenergic α2A (0.1 μM) / inhibition at 0.1 µM: 0.1 μM compound; for Percentage inhibition of ligand binding, Adrenergic α2A (0.3 μM) / inhibition at 0.3 µM: 0.3 μM compound; for inhibition at 0.1 µM: read-out: Percentage inhibition of ligand binding, Adrenergic α2A (0.1 μM); for inhibition at 0.3 µM: read-out: Percentage inhibition of ligand binding, Adrenergic α2A (0.3 μM)
T1 sequence (P08913 1-465): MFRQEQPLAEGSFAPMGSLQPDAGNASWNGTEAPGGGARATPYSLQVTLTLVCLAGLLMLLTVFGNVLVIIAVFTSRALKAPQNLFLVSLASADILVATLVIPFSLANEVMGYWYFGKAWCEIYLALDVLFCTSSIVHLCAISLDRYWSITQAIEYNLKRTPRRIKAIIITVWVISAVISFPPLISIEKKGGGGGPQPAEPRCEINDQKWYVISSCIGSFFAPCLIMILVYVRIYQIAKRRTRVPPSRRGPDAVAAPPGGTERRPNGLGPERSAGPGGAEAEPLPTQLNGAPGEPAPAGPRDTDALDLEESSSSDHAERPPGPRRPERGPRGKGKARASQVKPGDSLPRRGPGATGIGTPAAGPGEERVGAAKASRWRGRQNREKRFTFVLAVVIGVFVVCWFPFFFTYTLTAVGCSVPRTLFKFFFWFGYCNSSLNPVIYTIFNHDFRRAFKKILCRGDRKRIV
Summary of the method: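 Membranes from recombinant cells expressing the receptor, in 50 mM Tris-HCl pH 7.4 with 5 mM MgCl2, 1 mM CaCl2, 0.2% BSA; compounds incubated with 2 nM [^3H]MK-912 for 60 min at 25° C. Nonspecific binding defined by 10 μM rauwolscine; filtration, counting; percent inhibition of specific binding, or estimated Ki.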

[2] = target: T2, Human adrenergic α1B receptor (Homo sapiens, UniProt P35368); experiment: Radioligand binding, adrenergic α1B (Protocol Group B); details: Protocol Group B; for Percentage inhibition of ligand binding, Adrenergic α1B (0.1 μM) / inhibition at 0.1 µM: 0.1 μM compound; for Percentage inhibition of ligand binding, Adrenergic α1B (0.3 μM) / inhibition at 0.3 µM: 0.3 μM compound; for inhibition at 0.1 µM: read-out: Percentage inhibition of ligand binding, Adrenergic α1B (0.1 μM); for inhibition at 0.3 µM: read-out: Percentage inhibition of ligand binding, Adrenergic α1B (0.3 μM)
T2 sequence (P35368 1-520): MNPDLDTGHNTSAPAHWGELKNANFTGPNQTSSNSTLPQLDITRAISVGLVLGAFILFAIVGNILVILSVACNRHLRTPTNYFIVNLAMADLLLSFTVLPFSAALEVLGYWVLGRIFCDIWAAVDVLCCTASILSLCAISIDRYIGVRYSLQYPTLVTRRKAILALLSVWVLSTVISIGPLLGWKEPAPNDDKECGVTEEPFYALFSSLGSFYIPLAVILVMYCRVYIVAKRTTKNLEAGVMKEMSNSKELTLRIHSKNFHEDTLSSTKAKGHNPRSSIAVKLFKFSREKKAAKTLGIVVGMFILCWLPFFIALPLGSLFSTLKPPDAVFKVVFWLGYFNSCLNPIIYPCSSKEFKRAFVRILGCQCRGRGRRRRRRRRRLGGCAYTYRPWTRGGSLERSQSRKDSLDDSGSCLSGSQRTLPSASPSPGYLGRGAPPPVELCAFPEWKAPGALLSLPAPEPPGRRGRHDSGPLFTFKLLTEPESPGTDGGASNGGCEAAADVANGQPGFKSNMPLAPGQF
Summary of the method: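 Recombinant human α1B membranes incubated with test compound and 0.3 nM [3H]prazosin, 60 min at 25 °C, in 50 mM Tris-HCl pH 7.4, 10 mM MgCl2, 1 mM EDTA; nonspecific binding with 10 μM prazosin. Filter-bound radioactivity counted; values are % inhibition of specific binding or estimated Ki.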

[3] = target: T3, Human adrenergic α2B receptor (Homo sapiens, UniProt P18089); experiment: Radioligand binding, adrenergic α2B (Protocol Group B); details: Protocol Group B; for Percentage inhibition of ligand binding, Adrenergic α2B (10 nM) / inhibition at 0.01 µM: 10 nM compound; for Percentage inhibition of ligand binding, Adrenergic α2B (10 nM): 0.01 µM; for Percentage inhibition of ligand binding, Adrenergic α2B (30 nM) / inhibition at 0.03 µM: 30 nM compound; for Percentage inhibition of ligand binding, Adrenergic α2B (30 nM): 0.03 µM; for Percentage inhibition of ligand binding, Adrenergic α2B (0.1 μM) / inhibition at 0.1 µM: 0.1 μM compound; for inhibition at 0.01 µM: read-out: Percentage inhibition of ligand binding, Adrenergic α2B (10 nM); for inhibition at 0.03 µM: read-out: Percentage inhibition of ligand binding, Adrenergic α2B (30 nM); for inhibition at 0.1 µM: read-out: Percentage inhibition of ligand binding, Adrenergic α2B (0.1 μM)
T3 sequence (P18089 1-450): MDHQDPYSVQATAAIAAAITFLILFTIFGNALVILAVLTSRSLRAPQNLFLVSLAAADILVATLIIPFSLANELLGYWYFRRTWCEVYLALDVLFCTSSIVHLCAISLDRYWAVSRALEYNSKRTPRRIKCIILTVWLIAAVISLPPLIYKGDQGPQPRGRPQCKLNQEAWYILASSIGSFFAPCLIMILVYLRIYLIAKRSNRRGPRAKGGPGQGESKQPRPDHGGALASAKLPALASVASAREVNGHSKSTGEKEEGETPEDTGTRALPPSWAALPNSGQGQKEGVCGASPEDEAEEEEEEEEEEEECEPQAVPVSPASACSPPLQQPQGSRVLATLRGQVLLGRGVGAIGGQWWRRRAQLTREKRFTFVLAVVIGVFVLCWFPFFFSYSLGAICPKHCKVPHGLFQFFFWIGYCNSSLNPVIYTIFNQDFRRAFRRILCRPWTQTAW
Summary of the method: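 Recombinant human α2B receptor membranes incubated with compounds in 50 mM Tris-HCl pH 7.4, 5 mM MgCl2, 1 mM CaCl2, 0.2% BSA, 1% DMSO vehicle. Non-specific binding defined with 10 μM rauwolscine. Values are percent inhibition of specific binding or estimated Ki.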

| Compound | Percentage inhibition of ligand binding, Adrenergic α2A (0.1 μM) [1] [%] | Percentage inhibition of ligand binding, Adrenergic α2A (0.3 μM) [1] [%] | Percentage inhibition of ligand binding, Adrenergic α1B (0.1 μM) [2] [%] | Percentage inhibition of ligand binding, Adrenergic α1B (0.3 μM) [2] [%] | Percentage inhibition of ligand binding, Adrenergic α2B (10 nM) [3] [%] | Percentage inhibition of ligand binding, Adrenergic α2B (30 nM) [3] [%] | Percentage inhibition of ligand binding, Adrenergic α2B (0.1 μM) [3] [%] | inhibition at 0.01 µM [3] [%] | inhibition at 0.03 µM [3] [%] | inhibition at 0.1 µM [1] [%] | inhibition at 0.3 µM [1] [%] | inhibition at 0.1 µM [2] [%] | inhibition at 0.3 µM [2] [%] | inhibition at 0.1 µM [3] [%] |
| --- | --- | --- | --- | --- | --- | --- | --- | --- | --- | --- | --- | --- | --- | --- |
| Cc1cc(F)cc2c3c(n(CC(C)(O)c4cccnc4)c12)CC1CCCN1C3 (single isomer, unassigned) [76b] | 5 | 0 | 4 | 3 | 11 | 5 | 20 | – | – | – | – | – | – | – |
| CC(O)(Cn1c2c(c3cc(Cl)cc(F)c31)C1CCCN1CC2)c1ccncc1 (single isomer, unassigned) [52d] | −6 | 1 | −1 | 27 | – | – | 1 | 9 | 6 | – | – | – | – | – |
| OC(Cn1c2c(c3cc(Cl)ccc31)C1CCCN1CC2)c1ccncc1 (single isomer, unassigned) [143c] | 1 | – | 9 | – | – | 5 | – | – | – | – | – | – | – | – |
| Cc1ccc2c(c1)c1c(n2CC(O)c2ccccn2)CC2CCCN2C1 (single isomer, unassigned) [45d] | −7 | −2 | 4 | 18 | −10 | 0 | 34 | – | – | – | – | – | – | – |
| Cc1ccc2c(c1)c1c(n2CC(O)c2ccccn2)CC2CCCN2C1 (single isomer, unassigned) [45b] | −3 | 9 | 18 | 52 | 4 | 7 | 23 | – | – | – | – | – | – | – |
| Cc1cc(F)c2c(c1)c1c(n2CC(C)(O)c2ccncc2)CC2CCCN2C1 (single isomer, unassigned) [62c] | 5 | 21 | 10 | 15 | 47 | 52 | 65 | – | – | – | – | – | – | – |
| Cc1ccc2c(c1)c1c(n2CC(C)(O)c2cccnc2)CCN(CC(F)F)C1 (centres unmarked) [compound 58, 1-(2-(2,2-difluoroethyl)-8-methyl-3,4-dihydro-1H-pyrido[4,3-b]indol-5(2H)-yl)-2-(pyridin-3-yl)propan-2-ol] | – | – | – | – | – | – | – | -10 | -4 | -6 | -1 | -6 | -4 | -2 |
| CC(O)(Cn1c2c(c3cc(F)cc(Cl)c31)C1CCCN1CC2)c1cccnc1 (single isomer, unassigned) [89b] | 8 | 6 | 3 | 9 | 0 | 1 | – | – | – | – | – | – | – | – |
| Cc1ccc2c(c1)c1c(n2CC(O)c2ccncc2)CNC2CCCC12 (single isomer, unassigned) [34b] | −7 | −2 | −16 | 12 | 15 | 6 | 32 | – | – | – | – | – | – | – |
| Cc1cc(F)c2c(c1)c1c(n2CC(C)(O)c2cccnc2)CC2CCCN2C1 (single isomer, unassigned) [61a] | 9 | 34 | 1 | 18 | 38 | 68 | 88 | – | – | – | – | – | – | – |
| Cc1cc(F)c2c(c1)c1c(n2CC(C)(O)c2ccncc2)CCN2CCCC12 (single isomer, unassigned) [81c] | 3 | – | 2 | – | −2 | 0 | – | – | – | – | 8 | – | 11 | 17 |
| Cc1ccc2c(c1)c1c(n2CC(C)(O)c2ccc(N)nc2)CCN(C)C1 (centres unmarked) [compound 47, 2-(6-aminopyridin-3-yl)-1-(2,8-dimethyl-3,4-dihydro-1H-pyrido[4,3-b]indol-5(2H)-yl)propan-2-ol] | – | – | – | – | – | – | – | 50 | 65 | 33 | 50 | 3 | 32 | 83 |
| Cc1cc(Br)c2c(c1)c1c(n2CC(O)c2ccncc2)CCN2CCCC12 (single isomer, unassigned) [145a] | 39 | – | 46 | – | – | – | – | – | 84 | – | – | – | – | – |
| CN1CCc2c(c3cc(CCO)ccc3n2CC(C)(O)c2cccnc2)C1 (single isomer, unassigned) [139b] | 0 | – | 1 | – | – | 3 | – | – | – | – | – | – | – | – |
| Cc1ccc2c(c1)c1c(n2CC(O)c2ccc(C(=O)NC3CC3)nc2)CCN(C)C1 (centres unmarked) [compound 55, N-cyclopropyl-5-(2-(2,8-dimethyl-3,4-dihydro-1H-pyrido[4,3-b]indol-5(2H)-yl)-1-hydroxyethyl)picolinamide] | – | – | – | – | – | – | – | 6 | 24 | -4 | 3 | 19 | 44 | 50 |
